Laboratory results from patent publication US20090197955A1, “METHODS OF IMPROVING DHA DEPOSITION AND RELATED FUNCTION AND/OR DEVELOPMENT” (Monsanto Company, priority 2008, published 2009).

Test: Fatty acid composition of pig tissues (ham, loin, belly, skin) after feeding SDA ethyl ester diets, 35 day study
Type: in vivo, pigs
Conditions: 35 days
Description: A 35 day study was conducted to determine whether pigs fed a diet containing SDA could enhance tissues with improved fatty acid profiles including increased levels of SDA, EPA, and DHA.
Four test diets (Treatment 2, 3, 4, and 5) with SDA ethyl ester substituted for corn oil to provide 0.2, 0.4, 0.6 and 0.8% (w/w SDA active ingredient, as-is basis) were fed ad libitum to one pen of four pigs throughout the 35-day test period Table 4). All diets were fed in meal form. Treatment 6 was fed the same diet as Treatment 5, but for a duration of only 21 days.
All pigs were individually weighed at initiation of the acclimation and test period, and immediately prior to slaughter. Feed consumption per pen was recorded. Upon completion of the feeding period, pigs were slaughtered for tissue collection and carcass evaluation. Pigs were slaughtered using standard industry practices (electrical stunning, exsanguinations, scalding, dehairing and evisceration). Live weights prior to slaughter and hot carcass weights were recorded. The left side of each carcass was fabricated and samples were obtained from the loin (longissimus muscle), ham (semimembranosus muscle) and belly (a section from the center of the belly) for sensory evaluation, fatty acid, and proximate analysis. Prior to removing the sample for sensory and fatty and proximate analysis from the belly the firmness of the belly was evaluated using a flop test. At 24 hr postmortem fat thickness (10th rib), loin eye area (10th rib), visual color, firmness and marbling, Minolta color (L*a*b*), pH, and drip loss were measured.
In order to evaluate the fatty acid composition of pig tissues (loin, ham, skin, and belly), samples were stored at −80° C. until evaluation. After thawing, ˜22 g of fresh pig tissue was chopped into small pieces and thoroughly mixed before 10 g was sub sampled and lyophilized. Lyophilized samples were ground in 30 ml Sarstedt tubes with two ball bearings using a Mega Grinder. Ground samples (loin and ham: 50 mg; skin: 100 mg; belly: 150 mg; diet: 500 mg) were directly methylated with sulfuric acid in methanol (loin and ham: 1 mL; skin: 3 mL; belly: 10 mL; diet: 1.5 mL) sealed in the presence of butylated hydroxytoluene (50 mg BHT in 100 ml reagent) in reflux conditions of 90° C. Resultant fatty acid methyl esters (FAME's) were separated by capillary gas chromatography (GC) and detected by flame ionization detector (FID). The column used was a Supelco Omegawax 250 capillary column with dimensions of 30 m×0.25 mm×0.25 μm film thickness. The run time was 32 minutes. Peaks were identified based on their relative retention time compared to a FAME reference mixture. Quantification was achieved by using an internal standard (c15:0 triacylglyceride (TAG) for pig tissue samples and c17:0 TAG for diet samples). Results are reported as FA g/100 g fat with theoretical response correction.
For Table 6 below, each value represents g/100 g total fatty acids a mean of 4 samples (1 sample from each of 4 pigs) per treatment.

Question: With `CC/C=C\C/C=C\C/C=C\C/C=C\CCCCC(=O)O` [SDA, stearidonic acid] as the compound, how does the “24:1 n-9, ham” value (0.4% SDA feed) read?
Answer: The value was 0.05 g FA per 100 g fat.

Question: And the “Total PUFA, ham” value (0.4% SDA feed)?
Answer: The value was 13.34 g FA per 100 g fat.

Question: And the “Total monoenes, ham” value (0.4% SDA feed)?
Answer: Its value is 48.71 g FA per 100 g fat.

Question: What about the “Total n-3, ham” value (0.4% SDA feed) of the same compound?
Answer: The value was 1.23 g FA per 100 g fat.

Question: And the “Total n-6, ham” value (0.4% SDA feed)?
Answer: The value was 12.11 g FA per 100 g fat.

Question: And the “Total saturates, ham” value (0.4% SDA feed)?
Answer: Its value is 33.55 g FA per 100 g fat.

Question: And the “n-6/n-3, ham” value (0.4% SDA feed)?
Answer: The value was 9.85.

Question: What about the “12:0, ham” value (0.6% SDA feed) of the same compound?
Answer: Its value is 0.06 g FA per 100 g fat.

Question: What about the “14:0, ham” value (0.6% SDA feed) of the same compound?
Answer: The value was 1.05 g FA per 100 g fat.

Question: And the “16:0, ham” value (0.6% SDA feed)?
Answer: The value was 21.49 g FA per 100 g fat.

Question: And the “16:1 n-7, ham” value (0.6% SDA feed)?
Answer: The value was 3.03 g FA per 100 g fat.

Question: And the “16:1 n-9, ham” value (0.6% SDA feed)?
Answer: The value was 0.26 g FA per 100 g fat.

Question: What about the “18:0, ham” value (0.6% SDA feed) of the same compound?
Answer: The value was 11.47 g FA per 100 g fat.

Question: What about the “18:1 n-7, ham” value (0.6% SDA feed) of the same compound?
Answer: Its value is 4.08 g FA per 100 g fat.

Question: And the “18:1 n-9, ham” value (0.6% SDA feed)?
Answer: Its value is 37.64 g FA per 100 g fat.

Question: What about the “18:2 n-6 (LA), ham” value (0.6% SDA feed) of the same compound?
Answer: Its value is 9.92 g FA per 100 g fat.

Question: And the “18:3 n-3 (ALA), ham” value (0.6% SDA feed)?
Answer: The value was 0.22 g FA per 100 g fat.

Question: And the “18:3 n-6 (GLA), ham” value (0.6% SDA feed)?
Answer: The value was 0.14 g FA per 100 g fat.

Question: What about the “18:4 n-3 (SDA), ham” value (0.6% SDA feed) of the same compound?
Answer: Its value is 0.16 g FA per 100 g fat.

Question: And the “20:0, ham” value (0.6% SDA feed)?
Answer: The value was 0.16 g FA per 100 g fat.

Question: And the “20:1 n-7, ham” value (0.6% SDA feed)?
Answer: The value was 0.04 g FA per 100 g fat.

Question: What about the “20:1 n-9, ham” value (0.6% SDA feed) of the same compound?
Answer: Its value is 0.59 g FA per 100 g fat.

Question: What about the “20:1 n-11, ham” value (0.6% SDA feed) of the same compound?
Answer: Its value is 0.03 g FA per 100 g fat.

Question: What about the “20:2 n-6, ham” value (0.6% SDA feed) of the same compound?
Answer: The value was 0.28 g FA per 100 g fat.

Question: What about the “20:3 n-3, ham” value (0.6% SDA feed) of the same compound?
Answer: Its value is 0.04 g FA per 100 g fat.

Question: And the “20:3 n-6 (DGLA), ham” value (0.6% SDA feed)?
Answer: Its value is 0.43 g FA per 100 g fat.

Question: And the “20:4 n-3 (ETA), ham” value (0.6% SDA feed)?
Answer: The value was 0.26 g FA per 100 g fat.

Question: What about the “20:4 n-6 (AA), ham” value (0.6% SDA feed) of the same compound?
Answer: The value was 2.60 g FA per 100 g fat.

Question: What about the “20:5 n-3 (EPA), ham” value (0.6% SDA feed) of the same compound?
Answer: Its value is 0.54 g FA per 100 g fat.

Question: What about the “22:0, ham” value (0.6% SDA feed) of the same compound?
Answer: The value was 0.07 g FA per 100 g fat.

Question: And the “22:1 n-9, ham” value (0.6% SDA feed)?
Answer: Its value is 0.00 g FA per 100 g fat.

Question: And the “22:1 n-11, ham” value (0.6% SDA feed)?
Answer: Its value is 0.00 g FA per 100 g fat.

Question: And the “22:1 n-13, ham” value (0.6% SDA feed)?
Answer: The value was 0.00 g FA per 100 g fat.

Question: What about the “22:2 n-7, ham” value (0.6% SDA feed) of the same compound?
Answer: The value was 0.00 g FA per 100 g fat.

Question: And the “22:3 n-6, ham” value (0.6% SDA feed)?
Answer: The value was 0.24 g FA per 100 g fat.

Question: What about the “22:5 n-3 (DPA), ham” value (0.6% SDA feed) of the same compound?
Answer: Its value is 0.67 g FA per 100 g fat.

Question: What about the “22:6 n-3 (DHA), ham” value (0.6% SDA feed) of the same compound?
Answer: The value was 0.10 g FA per 100 g fat.

Question: And the “24:1 n-9, ham” value (0.6% SDA feed)?
Answer: Its value is 0.06 g FA per 100 g fat.

Question: And the “Total PUFA, ham” value (0.6% SDA feed)?
Answer: The value was 15.59 g FA per 100 g fat.

Question: What about the “Total monoenes, ham” value (0.6% SDA feed) of the same compound?
Answer: The value was 45.72 g FA per 100 g fat.

Question: What about the “Total n-3, ham” value (0.6% SDA feed) of the same compound?
Answer: The value was 1.99 g FA per 100 g fat.

Question: What about the “Total n-6, ham” value (0.6% SDA feed) of the same compound?
Answer: Its value is 13.60 g FA per 100 g fat.

Question: What about the “Total saturates, ham” value (0.6% SDA feed) of the same compound?
Answer: Its value is 34.30 g FA per 100 g fat.

Question: What about the “n-6/n-3, ham” value (0.6% SDA feed) of the same compound?
Answer: Its value is 6.83.

Question: And the “12:0, ham” value (0.8% SDA feed)?
Answer: Its value is 0.05 g FA per 100 g fat.

Question: What about the “14:0, ham” value (0.8% SDA feed) of the same compound?
Answer: The value was 0.96 g FA per 100 g fat.

Question: And the “16:0, ham” value (0.8% SDA feed)?
Answer: The value was 20.70 g FA per 100 g fat.

Question: And the “16:1 n-7, ham” value (0.8% SDA feed)?
Answer: Its value is 2.90 g FA per 100 g fat.

Question: And the “16:1 n-9, ham” value (0.8% SDA feed)?
Answer: The value was 0.53 g FA per 100 g fat.

Question: What about the “18:0, ham” value (0.8% SDA feed) of the same compound?
Answer: The value was 11.25 g FA per 100 g fat.

Question: What about the “18:1 n-7, ham” value (0.8% SDA feed) of the same compound?
Answer: Its value is 4.27 g FA per 100 g fat.

Question: What about the “18:1 n-9, ham” value (0.8% SDA feed) of the same compound?
Answer: The value was 35.19 g FA per 100 g fat.

Question: What about the “18:2 n-6 (LA), ham” value (0.8% SDA feed) of the same compound?
Answer: The value was 11.90 g FA per 100 g fat.

Question: And the “18:3 n-3 (ALA), ham” value (0.8% SDA feed)?
Answer: Its value is 0.25 g FA per 100 g fat.

Question: And the “18:3 n-6 (GLA), ham” value (0.8% SDA feed)?
Answer: Its value is 0.21 g FA per 100 g fat.

Question: What about the “18:4 n-3 (SDA), ham” value (0.8% SDA feed) of the same compound?
Answer: The value was 0.24 g FA per 100 g fat.

Question: What about the “20:0, ham” value (0.8% SDA feed) of the same compound?
Answer: Its value is 0.13 g FA per 100 g fat.

Question: And the “20:1 n-7, ham” value (0.8% SDA feed)?
Answer: The value was 0.04 g FA per 100 g fat.

Question: What about the “20:1 n-9, ham” value (0.8% SDA feed) of the same compound?
Answer: Its value is 0.52 g FA per 100 g fat.

Question: What about the “20:1 n-11, ham” value (0.8% SDA feed) of the same compound?
Answer: Its value is 0.03 g FA per 100 g fat.

Question: And the “20:2 n-6, ham” value (0.8% SDA feed)?
Answer: Its value is 0.27 g FA per 100 g fat.

Question: What about the “20:3 n-3, ham” value (0.8% SDA feed) of the same compound?
Answer: Its value is 0.03 g FA per 100 g fat.

Question: And the “20:3 n-6 (DGLA), ham” value (0.8% SDA feed)?
Answer: Its value is 0.50 g FA per 100 g fat.

Question: And the “20:4 n-3 (ETA), ham” value (0.8% SDA feed)?
Answer: Its value is 0.29 g FA per 100 g fat.

Question: What about the “20:4 n-6 (AA), ham” value (0.8% SDA feed) of the same compound?
Answer: Its value is 3.12 g FA per 100 g fat.

Question: And the “20:5 n-3 (EPA), ham” value (0.8% SDA feed)?
Answer: Its value is 0.87 g FA per 100 g fat.

Question: And the “22:0, ham” value (0.8% SDA feed)?
Answer: Its value is 0.10 g FA per 100 g fat.

Question: What about the “22:1 n-9, ham” value (0.8% SDA feed) of the same compound?
Answer: Its value is 0.00 g FA per 100 g fat.

Question: What about the “22:1 n-11, ham” value (0.8% SDA feed) of the same compound?
Answer: The value was 0.00 g FA per 100 g fat.

Question: What about the “22:1 n-13, ham” value (0.8% SDA feed) of the same compound?
Answer: Its value is 0.00 g FA per 100 g fat.

Question: And the “22:2 n-7, ham” value (0.8% SDA feed)?
Answer: Its value is 0.00 g FA per 100 g fat.
